From US20220265646A1, “PIEZO AGONISTS FOR PREVENTING OR REVERTING ABNORMAL AMYLOID DEPOSITION” (ITÄ-SUOMEN YLIOPISTO, priority 2019, published 2022)

Columns and labels:
hiPSC-microglia = assay: Cytotoxicity assay (Cytotox Green, Incucyte S3); assay type: cell-based; details: 2-20 μM Yoda1, 60-hour time point, n=3 experiments
Method: Cytotoxicity assay. The cytotoxicity of in vitro cultures was assessed with Cytotox Green assay (Essen Bioscience) using Incucyte S3 Live-Cell Analysis System (Essen Bioscience, Ann Arbor, Mich., USA, #4647). Microglia were seeded for the assay at density of 15 000 cells per well on poly-D-lysine (PDL, Sigma, #P0899) coated Nunclon (Thermo Scientific, #167008) or ImageLock 96-well plates (Essen Bioscience, #4379). On the assay day, cells were treated with 0.1-20 μM Yoda1 (Tocris, #5586) in PM medium supplemented with 250 nM Cytotox Green reagent (Essen Bioscience, #4633). Equal volume of DMSO (Sigma, #D2650) was used as a vehicle and 200 μM MPP+(Sigma, #D048) was applied as a positive control. Cells were live-imaged in IncuCyte S3 at 37° C. and 5% CO2 every 3 hours for 3 days to obtain cell death over time. One to two 10× images per well were captured using the phase-contrast mode to obtain confluency and the green fluorescence mode to obtain fluorescent intensity. Quantification was performed using IncuCyte S3 Software (2019B). Green fluorescence was separated from background with a top-hat thresholding and all settings were kept constant between different conditions. […]

[1] = tested on: Balb-c mice subjected to pMCAo; assay: Permanent middle cerebral artery occlusion (pMCAo) ischemic stroke model: MRI lesion size and adhesive removal test; assay type: in vivo, mouse; details: 1.78 mg/kg i.v.
Method: Permanent middle cerebral artery occlusion for modelling ischemic stroke and treatment with Yoda. Balb-c mice were subjected to permanent middle cerebral artery occlusion (pMCAo). The anaesthesia was induced by 5% isoflurane in 30% oxygen and 70% nitrogen as a carrier gas and maintained with 2% isoflurane during the surgical operation. The temperature was kept constant (37 ±1° C.) using the heating blanket connected to the rectal probe (Harvard apparatus, PanLab, Barcelona, Spain). The temporal muscle was detached from the scull and a hole (1 mm of diameter) was drilled to temporal bone. After removing the dura the exposed left MCA was lifted and occluded using a thermocoagulator (Aaron Medical Industries Inc., Clearwater, Fla., USA). […]
Lesion size measurement. The lesion volume was measured in vivo at 24 h and 72 h post ischemia by magnetic resonance imaging (MRI) using a vertical 9.4 T Oxford NMR 400 magnet (Oxford Instrument PLC, Abington, UK). […] Multislice T2-weighted images (repetition time 3000 ms, echo time 40 ms, matrix size 128×256, field of view 19.2×19.2 mm^2, slice thickness 0.8 mm and number of slices 12) were taken and the obtained images were analyzed with in-house made Aedes software under the Matlab environment (Math-works, Natick, Mass., USA).

## Clc1cccc(Cl)c1CSc1nnc(-c2cnccn2)s1 [Yoda1]
hiPSC-microglia
  microglial cell death (cytotoxicity dye uptake): protects hiPSC-microglia from cell death
[1]; 1 DPI and 3 DPI, versus vehicle
  lesion size measured with MRI: significantly smaller lesion size
[1]; ischemic mice
  ability to sense adhesive patches post stroke (adhesive removal test): no apparent deficits
